According to PMC10864483, “Iron uptake pathway of Escherichia coli as an entry route for peptide nucleic acids conjugated with a siderophore mimic” (Frontiers in Microbiology, 2024):
Where a SMILES comes first, the peptide text is derived from it. [ ]: non-standard residue; d: D form. Orn(N5-OH,N5-Ac) = CC(=O)N(O)CCC[C@H](N)C(=O)O

Experiment: CD spectroscopy of siderophore-iron(III) complexes
Format: physicochemical
Conditions: for Optimal Fe^3+ complex configuration: CD, phosphate buffer pH 7.0, optical isomer Λ or Δ
Source text: To elucidate the configuration of the siderophore-iron(III) complexes, we used circular dichroism (CD) spectroscopy where the minimum and maximum with Cotton effect are expected in the range of 350–490 nm ([Winkelmann, 1991]; [Matsumoto et al., 2001]). For the Λ configuration, the minimum band in the CD spectrum should be present before the maximum. Since the Δ configuration is a mirror image of the Λ configuration, the maximum band appears first ([Winkelmann, 1991]). In the presence of the Fe^3+ salt, the natural siderophores and SL solution changed from colorless to yellow after several minutes. This indicates the presence of the siderophore-ferric iron complex and further confirms the metal-binding properties of these compounds ([Winkelmann, 1991]). Based on this observation, during the CD experiments, for every siderophore, we adjusted the incubation time at the optimal concentration, ranging from 40 to 90 min (see Supplementary Figure S1).
Figure 4 CD spectra of the natural (ferrichrome and feroxamine) and synthetic (SL and SC) siderophores with Fe^3+ salt solution in phosphate buffer (pH = 7.0).
CD spectra were recorded in aqueous buffer solution (100 mM phosphate buffer, pH 7.0), in the presence of 4 mM iron(III) salt solution (FeCl3 in the phosphate buffer). To obtain optimal recording conditions, siderophore concentrations were varied in the range 0.24–1.0 mM with an incubation time of 20–90 min (Supplementary Figure S1). In all CD experiments, the siderophore-Fe^3+ molar ratio of 1:1 was maintained. The spectra were collected using the Biokine MOS-450/AF-CD spectrometer equipped with the Xe lamp using a 0.1 cm CD cell. The acquisition duration time was 2 s with a resolution of 1 nm. The measurements were performed in 100 mM phosphate buffer, pH 7.0, room temperature, and wavelength range 300–500 nm. The presented CD spectra were smoothed with the Savitzky–Golay method using GraphPad and are the averages of three scans. Each CD experiment was conducted twice to confirm the repeatability of the spectra.

[1] = siderophore with Fe^3+ salt 1:1, 100 mM phosphate buffer pH 7.0, room temperature, 300-500 nm, average of three scans

Molecule | Optimal Fe^3+ complex configuration | CD Wavelength Maximum [1] [nm] | CD Wavelength Minimum [1] [nm] | Ferric iron binding (CD and color change) (with Fe^3+ salt solution, phosphate buffer pH 7.0)
CC(=O)N([O-])CCCCCNC(=O)CCC(=O)N([O-])CCCCCNC(=O)CCC(=O)N([O-])CCCCCN.[Fe+3] [Feroxamine, feroxamine] | Λ and Δ |  |  | 
CC(=O)N([O-])CCC[C@@H]1NC(=O)CNC(=O)CNC(=O)CNC(=O)[C@H](CCCN([O-])C(C)=O)NC(=O)[C@H](CCCN([O-])C(C)=O)NC1=O.[Fe+3] [Ferrichrome] (cyclo(GGG[Orn(N5-OH,N5-Ac)][Orn(N5-OH,N5-Ac)][Orn(N5-OH,N5-Ac)])) | Λ | 456 | 360 | 
cyc(Asp-(Orn(Ac,OH))3-Gly-Lys(N3)) (head to tail) [SC, azido-Cyc(Asp-(Orn(Ac‚OH))3-GIy-Lys(N3)), cyclic hydroxamate siderophore mimic] |  | 487 |  | cannot bind ferric iron
